Measured values reported in patent US20230132823A1, “BI-FUNCTIONAL COMPOUNDS AND METHODS FOR TARGETED UBIQUITINATION OF ANDROGEN RECEPTOR” (MONTELINO THERAPEUTICS, INC., priority 2020, published 2023).

What was measured:
[1] = test system: 22Rv1-Enz^R; assay: 22Rv1-Enz^R cell proliferation assay, GIC50 (Experimental Example 4); assay type: cell-based; conditions: Homo sapiens; 6-day culture, cell media changed every 24 hours
Experimental: Selected compounds were tested in the human prostate cancer cell line, 22Rv1-Enz^R as described in Geun Taek Lee et al., Molecular Cancer Therapeutics, 20:490-9 (2021). These procedures are similar to that described in Experimental Example 1, above, except that the assay conditions are a 6-day culture with cell media changed every 24 hours.
In the Table: (+)—GIC50<20 μM; (++)—GIC50<10 μM; (+++)—GIC50<1 μM.

[2] = test system: progesterone receptor (PR) a and b; assay: Immunoblot of PR in 22Rv1 cells; assay type: cell-based, human; conditions: 22Rv1, 24 hours, up to 10 μM
Experimental: Cell Culture. Human CaP cell lines, LNCaP, 22Rv1, VCaP, PC3, and DU145 are obtained from the American Type Culture Collection (ATCC) and maintained in the standard culture media: RPMI-1640 supplemented with 10% fetal bovine serum (FBS). LNCaP, 22Rv1, and VCaP are androgen-responsive cell lines, while PC3 and DU145 are not. To establish SAT resistant CaP cell lines, LNCaP, 22Rv1, and VCaP are treated continuously with 10-50 μM abiraterone, apalutamide, darolutamide, or enzalutamide. After 3-6 months, stable cell lines are established and designated as LNCaP-Abi^R, LNCaP-Apa^R, LNCaP-Daro^R, LNCaP-Enz^R, VCaP-Abi^R, VCaP-Apa^R, VCaP-Daro^R, VCaP-Enz^R, 22Rv1-Abi^R, 22Rv1-Apa^R, 22Rv1-Daro^R and 22Rv1-Enz^R. Unless otherwise specified, the standard culture media for these SAT-resistant cell lines included 10 μM of their respective SAT. For the proteasome inhibitor study, the inhibitors MG132 and Epoxomicin are used. The E3 ligase inhibitors Heclin, Nutlin 3a, Thalidomide, and VH298 are used. […] Mycoplasma contamination is also assessed using a PCR based detection system.
Immunoblot Analysis. […] Cell lysates are then centrifuged and protein in the supernatant is quantified. […] Following the incubation with appropriate secondary antibody, immunoblots are analyzed using SuperSignal West Femto Maximum Sensitivity Substrate (ThermoFisher).

[3] = test system: LNCaP; assay: LNCaP cell proliferation; assay type: cell-based, human; conditions: androgen-responsive cell line; 1 μM
Experimental: (§1) The human prostate cancer cell line, 22Rv1 has been reported to express a high level of AR-V7. Thus, 22Rv1 was seeded at 50,000 cells/well on a 24-well plate in quadruplicates and treated with test compound in concentrations ranging up to 20 μM for four days. Standard culture media was RPMI-1640 supplemented with 10% fetal bovine serum. The test compound initially was dissolved in DMSO at 50 mM. This stock solution was then diluted as needed for the indicated concentrations. At the end of the four-day period, cells were harvested using 1% trypsin and counted using an automated cell counter.
(§2) Cell Culture. Human CaP cell lines, LNCaP, 22Rv1, VCaP, PC3, and DU145 are obtained from the American Type Culture Collection (ATCC) and maintained in the standard culture media: RPMI-1640 supplemented with 10% fetal bovine serum (FBS). LNCaP, 22Rv1, and VCaP are androgen-responsive cell lines, while PC3 and DU145 are not. To establish SAT resistant CaP cell lines, LNCaP, 22Rv1, and VCaP are treated continuously with 10-50 μM abiraterone, apalutamide, darolutamide, or enzalutamide. […] Mycoplasma contamination is also assessed using a PCR based detection system.

[4] = test system: DU145; assay: DU145 cell proliferation; assay type: cell-based, human; conditions: AR-negative cell line; 1 μM
Experimental: as §1, §2

[5] = test system: AR-FL; assay: Immunoblot of AR-FL in harvested xenograft tumors; assay type: in vivo, human
Experimental: (§3) Immunoblot Analysis. CaP cells are collected and lysed with the lysis buffer (20 mM Tris-HCl (pH 7.5), 150 mM NaCl, 1 mM Na2EDTA, 1 mM EGTA, 1% Triton, 2.5 mM sodium pyrophosphate, 1 mM beta-glycerophosphate, 1 mM Na3VO4, and 1 μg/ml leupeptin) containing 1 mM phenylmethylsulfonyl fluoride (PMSF). Cell lysates are then centrifuged and protein in the supernatant is quantified. After separating 25-50 μg of protein using SDS-PAGE, samples are incubated with AR-V7, GR, PR, ERα, AR-FL, ubiquitin, or β-actin antibodies. For AR-V7, AR-FL, PR, GR, and ERα immunoblots, primary antibody is diluted 1:1000 in 5% skim milk. For the β-actin immunoblot, 1:10000 diluted primary antibody is used. […] Following the incubation with appropriate secondary antibody, immunoblots are analyzed using SuperSignal West Femto Maximum Sensitivity Substrate (ThermoFisher).
(§4) Mice are then treated daily with Test Compound with or without enzalutamide via the indicated route (intratumoral, intraperitoneal, or oral) for five to six weeks. At the end of the study, all animals are sacrificed and tumors are harvested and analyzed. Statistical significance is calculated using the Student's t-test for paired comparisons of experimental groups and, where appropriate, by Wilcoxon rank sum test, and by 2-way ANOVA. […]
(§5) The in vivo effects of the Compound of Example 16 are assessed in mice using enzalutamide-resistant CaP xenografts. […]

[6] = biological target: T1, AR-V7 (Homo sapiens, UniProt P10275); assay: Immunoblot of AR-V7 in harvested xenograft tumors; assay type: in vivo; parameters: endogenous in cells; host or cells: 22Rv1 (also VCaP, LNCaP and SAT-resistant sublines)
T1 sequence (P10275 1-644 isoform P10275-3): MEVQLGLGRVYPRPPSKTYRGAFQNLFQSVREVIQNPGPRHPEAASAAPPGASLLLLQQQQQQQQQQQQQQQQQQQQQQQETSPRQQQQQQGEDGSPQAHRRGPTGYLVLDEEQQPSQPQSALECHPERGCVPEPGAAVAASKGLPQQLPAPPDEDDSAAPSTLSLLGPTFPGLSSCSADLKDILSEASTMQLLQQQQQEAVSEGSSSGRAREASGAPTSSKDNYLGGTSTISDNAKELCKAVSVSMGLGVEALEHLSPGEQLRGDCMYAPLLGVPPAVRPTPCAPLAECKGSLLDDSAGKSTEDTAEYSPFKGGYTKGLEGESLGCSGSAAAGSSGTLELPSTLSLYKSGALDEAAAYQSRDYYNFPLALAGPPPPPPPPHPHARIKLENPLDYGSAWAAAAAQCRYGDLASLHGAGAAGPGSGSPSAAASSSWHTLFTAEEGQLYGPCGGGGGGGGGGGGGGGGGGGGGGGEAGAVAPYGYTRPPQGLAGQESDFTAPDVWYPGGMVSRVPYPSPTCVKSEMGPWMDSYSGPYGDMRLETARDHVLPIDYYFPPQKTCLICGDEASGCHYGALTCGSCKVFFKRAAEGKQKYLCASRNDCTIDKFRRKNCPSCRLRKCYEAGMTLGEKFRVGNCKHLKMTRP
Experimental: as §3, §4, §5

[7] = intratumoral, 22Rv1-Enz^R xenograft, end of study

SMILES: Cc1ncsc1-c1ccc([C@H](C)NC(=O)[C@@H]2C[C@@H](O)CN2C(=O)[C@@H](NC(=O)CCCCNC(=O)COc2c(-c3csc(N4CCOCC4)n3)ccc(F)c2F)C(C)(C)C)cc1 [Example 16, (2S,4R)-1-((S)-2-(5-(2-(2,3-difluoro-6-(2-morpholinothiazol-4-yl)phenoxy)acetamido)pentanamido)-3,3-dimethylbutanoyl)-4-hydroxy-N-((S)-1-(4-(4-methylthiazol-5-yl)phenyl)ethyl)pyrrolidine-2-carboxamide]
- IC50 [1]: < 1000 nM
- effect on expression level of progesterone receptor (PR) a and b [2]: no visible effect
- effect on proliferation of LNCaP [3]: inhibits the proliferation
- effect on DU145 cells [4]: not affected
- AR-FL protein expression in Enz^R CaP tumors ([5]; IP administration): decreased
- AR-FL protein level in treated tumors [5, 7]: significant decrease
- AR-V7 protein expression in Enz^R CaP tumors ([6]; IP administration): decreased
- AR-V7 protein level in treated tumors [6, 7]: significant decrease
